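Following 48 hours of exposure in 96-well plates, responses at five concentrations were used to interpolate endpoints linearly. Here, GI50 denotes the concentration required for 50% inhibition of growth. TGI: concentration producing complete growth inhibition.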
Legend:
Assay in all cases: DTP human tumour cell line panel, 48 h
BT-549 breast = system: BT-549 breast
DU-145 prostate = system: DU-145 prostate
EKVX NSCLC = system: EKVX NSCLC
HOP-92 NSCLC = system: HOP-92 NSCLC
KM12 colon = system: KM12 colon
OVCAR-3 ovarian = system: OVCAR-3 ovarian
OVCAR-4 ovarian = system: OVCAR-4 ovarian
PC-3 prostate = system: PC-3 prostate
SF-539 CNS = system: SF-539 CNS
SK-MEL-5 melanoma = system: SK-MEL-5 melanoma

Q: What does the source list for `CC1=CC[C@@H]2C(C)(C)[C@@H](O)CC[C@@]2(C)[C@@H]1COc1ccc2ccc(=O)oc2c1`?
A: GI50 (BT-549 breast): 2.9 µM; TGI (BT-549 breast): 8.23 µM; GI50 (DU-145 prostate): 5.39 µM; TGI (DU-145 prostate): 17.8 µM; GI50 (EKVX NSCLC): 10.3 µM; TGI (EKVX NSCLC): 26.7 µM; GI50 (HOP-92 NSCLC): 3.83 µM; TGI (HOP-92 NSCLC): 18.2 µM; GI50 (KM12 colon): 4.18 µM; TGI (KM12 colon): 15.7 µM; GI50 (OVCAR-3 ovarian): 4.34 µM; TGI (OVCAR-3 ovarian): 16 µM; GI50 (OVCAR-4 ovarian): 3.66 µM; TGI (OVCAR-4 ovarian): 12.7 µM; GI50 (PC-3 prostate): 3.28 µM; TGI (PC-3 prostate): 15.9 µM; GI50 (SF-539 CNS): 12.3 µM; TGI (SF-539 CNS): 28.5 µM; GI50 (SK-MEL-5 melanoma): 3.48 µM; TGI (SK-MEL-5 melanoma): 12.7 µM

Q: Which results are given for `O=C(/C=C/c1ccc([N+](=O)[O-])o1)NNC(=O)c1cc2ccccc2cc1O`?
A: GI50 (BT-549 breast): 1.49 µM; TGI (BT-549 breast): 5.74 µM; GI50 (DU-145 prostate): 0.998 µM; TGI (DU-145 prostate): 4.3 µM; GI50 (EKVX NSCLC): 7.2 µM; TGI (EKVX NSCLC): > 100 µM; GI50 (HOP-92 NSCLC): 2.75 µM; TGI (HOP-92 NSCLC): > 100 µM; GI50 (KM12 colon): 2.18 µM; TGI (KM12 colon): > 23 µM; GI50 (OVCAR-3 ovarian): 0.967 µM; TGI (OVCAR-3 ovarian): > 21 µM; GI50 (OVCAR-4 ovarian): 1.26 µM; TGI (OVCAR-4 ovarian): > 100 µM; GI50 (PC-3 prostate): 3.36 µM; TGI (PC-3 prostate): > 100 µM; GI50 (SF-539 CNS): 2.06 µM; TGI (SF-539 CNS): 7.52 µM; GI50 (SK-MEL-5 melanoma): 0.656 µM; TGI (SK-MEL-5 melanoma): 2.04 µM

Q: What does the source list for `Cc1cc(O)cc(C)c1/C=C/c1cncc(C(=O)N(C)C)c1`?
A: GI50 (BT-549 breast): > 25 µM; TGI (BT-549 breast): > 25 µM; GI50 (DU-145 prostate): > 25 µM; TGI (DU-145 prostate): > 25 µM; GI50 (EKVX NSCLC): > 25 µM; TGI (EKVX NSCLC): > 25 µM; GI50 (HOP-92 NSCLC): > 25 µM; TGI (HOP-92 NSCLC): > 25 µM; GI50 (KM12 colon): > 25 µM; TGI (KM12 colon): > 25 µM; GI50 (OVCAR-3 ovarian): > 25 µM; TGI (OVCAR-3 ovarian): > 25 µM; GI50 (OVCAR-4 ovarian): > 25 µM; TGI (OVCAR-4 ovarian): > 25 µM; GI50 (PC-3 prostate): > 25 µM; TGI (PC-3 prostate): > 25 µM; GI50 (SF-539 CNS): > 25 µM; TGI (SF-539 CNS): > 25 µM; GI50 (SK-MEL-5 melanoma): > 25 µM; TGI (SK-MEL-5 melanoma): > 25 µM

Q: How did the TGI (BT-549 breast) turn out when `CN(C)CN1C(=O)S/C(=C2\C(=O)N(CN(C)C)c3ccccc32)C1=O` was run?
A: > 100 µM

Q: What about the TGI (DU-145 prostate) of the same molecule?
A: > 100 µM

Q: And the TGI (EKVX NSCLC)?
A: > 100 µM

Q: What about the TGI (HOP-92 NSCLC) of the same molecule?
A: > 100 µM

Q: And the TGI (KM12 colon)?
A: > 100 µM

Q: What about the TGI (OVCAR-3 ovarian) of the same molecule?
A: > 100 µM

Q: And the TGI (OVCAR-4 ovarian)?
A: > 100 µM

Q: And the TGI (PC-3 prostate)?
A: > 100 µM

Q: And the TGI (SF-539 CNS)?
A: > 100 µM

Q: And the TGI (SK-MEL-5 melanoma)?
A: > 100 µM

Q: What does the source list for `CC[C@@]1(OC(=O)CCC(=O)O)C(=O)OCc2c1cc1n(c2=O)Cc2cc3ccccc3nc2-1`?
A: TGI (BT-549 breast): > 28.3 µM; TGI (DU-145 prostate): 1.51 µM; TGI (EKVX NSCLC): > 100 µM; TGI (HOP-92 NSCLC): 6.08 µM; TGI (KM12 colon): 3.2 µM; TGI (OVCAR-3 ovarian): 3.88 µM; TGI (OVCAR-4 ovarian): 13.3 µM; TGI (PC-3 prostate): > 100 µM; TGI (SF-539 CNS): 0.238 µM; TGI (SK-MEL-5 melanoma): 0.373 µM

Q: What does the source list for `O=C(O)c1nnsc1COCc1ccccc1`?
A: TGI (BT-549 breast): > 100 µM; TGI (DU-145 prostate): > 100 µM; TGI (EKVX NSCLC): > 100 µM; TGI (HOP-92 NSCLC): > 100 µM; TGI (KM12 colon): > 100 µM; TGI (OVCAR-3 ovarian): > 100 µM; TGI (OVCAR-4 ovarian): > 100 µM; TGI (PC-3 prostate): > 100 µM; TGI (SF-539 CNS): > 100 µM; TGI (SK-MEL-5 melanoma): > 100 µM

Q: Which results are given for `c1cc(-c2sc(-c3ccncc3)c(-c3ccncc3)c2-c2ccncc2)ccn1`?
A: TGI (BT-549 breast): 42 µM; TGI (DU-145 prostate): 76 µM; TGI (EKVX NSCLC): 43.9 µM; TGI (HOP-92 NSCLC): 29.6 µM; TGI (KM12 colon): 65.5 µM; TGI (OVCAR-3 ovarian): 44.4 µM; TGI (OVCAR-4 ovarian): > 100 µM; TGI (PC-3 prostate): 57.4 µM; TGI (SF-539 CNS): 35 µM; TGI (SK-MEL-5 melanoma): 28.6 µM

Q: With `O=c1c(OC/C(=N/O)c2ccccc2)c(-c2ccccc2)oc2ccccc12` as the molecule, how does the GI50 (BT-549 breast) read?
A: 13.2 µM

Q: What about the TGI (BT-549 breast) of the same molecule?
A: 26.8 µM

Q: And the GI50 (DU-145 prostate)?
A: 17.1 µM

Q: And the TGI (DU-145 prostate)?
A: > 50 µM

Q: What about the GI50 (EKVX NSCLC) of the same molecule?
A: 12.3 µM

Q: And the TGI (EKVX NSCLC)?
A: 30.1 µM

Q: What about the GI50 (HOP-92 NSCLC) of the same molecule?
A: 14.3 µM

Q: And the TGI (HOP-92 NSCLC)?
A: > 50 µM

Q: And the GI50 (KM12 colon)?
A: 10.6 µM

Q: And the TGI (KM12 colon)?
A: 24.6 µM

Q: And the GI50 (OVCAR-3 ovarian)?
A: 8.06 µM

Q: What about the TGI (OVCAR-3 ovarian) of the same molecule?
A: 20.1 µM

Q: And the GI50 (OVCAR-4 ovarian)?
A: 38.6 µM

Q: What about the TGI (OVCAR-4 ovarian) of the same molecule?
A: > 50 µM

Q: And the GI50 (PC-3 prostate)?
A: 8.64 µM

Q: What about the TGI (PC-3 prostate) of the same molecule?
A: 18 µM

Q: What about the GI50 (SF-539 CNS) of the same molecule?
A: 12.5 µM

Q: And the TGI (SF-539 CNS)?
A: 28 µM

Q: And the GI50 (SK-MEL-5 melanoma)?
A: 7.88 µM

Q: And the TGI (SK-MEL-5 melanoma)?
A: 15 µM

— PubChem BioAssay (NCI)
